Data as given in patent publication US20230312577A1, “DUAL KINASE-BROMODOMAIN INHIBITORS” (MONASH UNIVERSITY, priority 2020, published 2023).

system: OPM2 cells; experiment: Cell proliferation assay (ViaLight, cellular ATP); type: cell-based; conditions: Homo sapiens, OPM-2, 120 h, 5 days, 5 μM to 1 nM
Procedure: OPM2 cells (1×10^3) were plated in a 96 well plate. Test compounds were added to cells at final concentrations ranging from 5 μM to 1 nM. They were incubated for 5 days before they were analysed using ViaLight luminescence-based proliferation assays which detect cellular ATP, as per the manufacturer's instructions. All samples were prepared in technical triplicates. Data analysis was performed in GraphPad Prism version 7.00 for Mac OS X, (GraphPad Software, San Diego California USA) in order to calculate the GI50.

For `CC(=O)N1c2ccc(-c3ccc(NC(=O)CNC(=O)c4nc5c(N6CCOCC6)nc(-c6cnc(N)nc6)cn5c4C)cc3)cc2CC[C@@H]1C` [Cpd 048, (S)-N-(2-((4-(1-acetyl-2-methyl-1,2,3,4-tetrahydroquinolin-6-yl)phenyl)amino)-2-oxoethyl)-6-(2-aminopyrimidin-5-yl)-3-methyl-8-morpholinoimidazo[1,2-a]pyrazine-2-carboxamide], which GI50 is on record?
The GI50 was ≤ 100 nM.

`CC(=O)N1c2ccc(-c3cccc(NC(=O)CNC(=O)c4sc5c(N6CCOCC6)nc(-c6cnc(N)nc6)nc5c4C)c3)cc2CC[C@@H]1C` [Cpd 049, (S)-N-(2-((3-(1-acetyl-2-methyl-1,2,3,4-tetrahydroquinolin-6-yl)phenyl)amino)-2-oxoethyl)-2-(2-aminopyrimidin-5-yl)-7-methyl-4-morpholinothieno[3,2-d]pyrimidine-6-carboxamide] was tested. Which GI50 did it give?
Its GI50 is 100 to 500 nM.

Which GI50 does the source give for `CC(=O)N1c2ccc(-c3cccc(CCNC(=O)c4nc5c(N6CCOCC6)nc(-c6cnc(N)nc6)cn5c4C)c3)cc2CC[C@@H]1C` [Cpd 050, (S)-N-(3-(1-acetyl-2-methyl-1,2,3,4-tetrahydroquinolin-6-yl)phenethyl)-6-(2-aminopyrimidin-5-yl)-3-methyl-8-morpholinoimidazo[1,2-a]pyrazine-2-carboxamide] here?
Its GI50 is 100 to 500 nM.

Which GI50 does the source give for `CC(=O)N1c2ccc(-c3cccc(CCNC(=O)c4sc5c(N6CCOCC6)nc(-c6cnc(N)nc6)nc5c4C)c3)cc2CC[C@@H]1C` [Cpd 051, (S)-N-(3-(1-acetyl-2-methyl-1,2,3,4-tetrahydroquinolin-6-yl)phenethyl)-2-(2-aminopyrimidin-5-yl)-7-methyl-4-morpholinothieno[3,2-d]pyrimidine-6-carboxamide] here?
Its GI50 is 100 to 500 nM.

Which GI50 does the source give for `CC(=O)N1c2ccc(-c3cnn(C4CCN(Cc5sc6c(N7CCOCC7)nc(-c7cnc(N)nc7)nc6c5C)CC4)c3)cc2CC[C@@H]1C` [Cpd 052, (S)-1-(6-(1-(1-((2-(2-aminopyrimidin-5-yl)-7-methyl-4-morpholinothieno[3,2-d]pyrimidin-6-yl)methyl)piperidin-4-yl)-1H-pyrazol-4-yl)-2-methyl-3,4-dihydroquinolin-1(2H)-yl)ethan-1-one] here?
The GI50 was > 500 nM.

`CC(=O)N1c2ccc(-c3cnn(C4CCN(C(=O)c5sc6c(N7CCOCC7)nc(-c7cnc(N)nc7)nc6c5C)CC4)c3)cc2CC[C@@H]1C` [Cpd 053, (S)-1-(6-(1-(1-(2-(2-aminopyrimidin-5-yl)-7-methyl-4-morpholinothieno[3,2-d]pyrimidine-6-carbonyl)piperidin-4-yl)-1H-pyrazol-4-yl)-2-methyl-3,4-dihydroquinolin-1(2H)-yl)ethan-1-one] was tested. Which GI50 did it give?
Its GI50 is ≤ 100 nM.

Which GI50 does the source give for `CC(=O)N1c2ccc(-c3ccc(CNCc4sc5c(N6CCOCC6)nc(-c6cnc(N)nc6)nc5c4C)cc3)cc2CC[C@@H]1C` [Cpd 055, (S)-1-(6-(4-((((2-(2-aminopyrimidin-5-yl)-7-methyl-4-morpholinothieno[3,2-d]pyrimidin-6-yl)methyl)amino)methyl)phenyl)-2-methyl-3,4-dihydroquinolin-1(2H)-yl)ethan-1-one] here?
Its GI50 is > 500 nM.

With `CC(=O)N(Cc1ccc(-c2ccc3c(c2)CC[C@H](C)N3C(C)=O)cc1)Cc1sc2c(N3CCOCC3)nc(-c3cnc(N)nc3)nc2c1C` [Cpd 056, (S)-N-(4-(1-Acetyl-2-methyl-1,2,3,4-tetrahydroquinolin-6-yl)benzyl)-N-((2-(2-aminopy-rimidin-5-yl)-7-methyl-4-morpholinothieno[3,2-d]pyrimidin-6-yl)methyl)acetamide] as the molecule, how does the GI50 read?
Its GI50 is 100 to 500 nM.

With `CC(=O)N1c2ccc(-c3ccc(CNC(=O)c4cn5cc(-c6cnc(N)cc6C(F)(F)F)nc(N6CCOCC6)c5n4)cc3)cc2CC[C@@H]1C` [Cpd 057, (S)-N-(4-(1-Acetyl-2-methyl-1,2,3,4-tetrahydroquinolin-6-yl)benzyl)-6-(6-amino-4-(tri-fluoromethyl)pyridin-3-yl)-8-morpholinoimidazo[1,2-a]pyrazine-2-carboxamide] as the molecule, how does the GI50 read?
Its GI50 is > 500 nM.
